Experimental findings from article PMC4183699, “A Relay Network of Extracellular Heme-Binding Proteins Drives C. albicans Iron Acquisition from Hemoglobin” (PLoS Pathogens, 2014) are described below.

One experiment deals with T1, Pga7 (Candida albicans, UniProt Q59UT5).
T1 construct: Pga7_18–195 (C-terminal Myc-6×His, expressed in Pichia pastoris)
Briefly: ITC; also Soret-shift UV-Vis titration ([…]), 1H NMR, hemin-agarose pull-down. The experiment is classed as binding.

A further experiment addresses T2, Rbt5 (Candida albicans, UniProt Q59UT4).
T2 construct: Rbt5_23–219 (C-terminal Myc-6×His, expressed in Pichia pastoris)
Briefly: ITC; also hemin-agarose pull-down, size exclusion co-elution, Soret peak. It is filed as binding.

The target of the next experiment is T3, Rbt5(23–219)-Myc-6×His (C. albicans, UniProt Q59UT4 23-219).
T3 construct: Rbt5, C. albicans CFEM protein, residues 23-219: from the predicted signal peptide cleavage site to the predicted GPI anchor addition site; RBT5 nucleotides +67 to +657 cloned EcoRI-XbaI into pPICZalphaA (KB2258); Apo-protein (heme removed with 3 M imidazole); The vector pPICZalphaA may leave a few residues at the N-terminus after the alpha-factor signal is cut; also called rRbt5; recombinant …
T3 sequence: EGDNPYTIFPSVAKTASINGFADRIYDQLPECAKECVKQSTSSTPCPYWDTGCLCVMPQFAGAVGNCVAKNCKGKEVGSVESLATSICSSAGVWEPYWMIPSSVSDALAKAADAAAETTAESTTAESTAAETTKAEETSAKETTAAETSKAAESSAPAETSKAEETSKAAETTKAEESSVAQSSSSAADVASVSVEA
Briefly: SPR; Biacore T200; apo-Pga7(18–195), apo-Rbt5(23–219) and apo-Rbt5(23–219) D72A immobilised on a CM-5 chip by amine chemistry; 3 µM holo-Pga7(18–195) (with heme) injected for 60 sec; double-blanked against an empty cell and buffer. The settings on record: both partners purified.

As to `C=CC1=C(C)C2=Cc3c(C=C)c(C)c4[n]3[Fe]([Cl])[n]3c(c(C)c(CCC(=O)O)c3=CC3=NC(=C4)C(C)=C3CCC(=O)O)=CC1=N2` [hemin], the Kd on Pga7 stood at 65 nM; at Rbt5 it was 5400 nM.

B1: Pga7(18–195)-Myc-6×His (domain or fragment)
chain: NFGTYPKVPKTASINGFADPIYDLLPDCAKECVKFSTSNTPCPYWDTGCFCVMPQWAGLVGQCVAQKCKGEDVASARFLATSLCSVVGANTWMMPASISSMLSTAAGDAKEVTTIEGKTAKSWVTAPGSAAGSVVSETGSASETGSSESAQSTTTGSSSTGSSSTDSSSSSSSSPSSS
notes: Pga7, C. albicans CFEM protein, residues 18-195: from the predicted signal peptide cleavage site to the predicted GPI anchor addition site; PGA7 nucleotides +52 to +585 cloned EcoRI-XbaI into pPICZalphaA (KB2259); Used as apo-protein (heme removed) or as holo-protein (loaded with heme, not covalent); both are this one construct; The vector pPICZalphaA may leave a few residues at the N-terminus …
For the molecule B1, in the experiment with Rbt5(23–219)-Myc-6×His, the binding result was “binds”.
